Measurements taken from patent US4073926A, “Mono-quaternary ammonium salts of hydantoin and compositions thereof” (Glyco Chemicals, Inc., priority 1976, dated 1978).
Where two headings read alike, the source gives them in different places.

Assays:
Format in all cases: cell-based
[1] = system: Aspergillus niger No. 16404; test: Serial dilution anti-fungal test in Difco Sabouraud Dextrose Broth; set-up: Test Culture and Results Aspergillis niger # 16404: key: -: Denotes no test; +: Denotes growth; 0: Denotes no growth; conditions: for MIC: Aspergillus niger, NO.16404, 120 h, read-out: Minimum Inhibitory Centration
Protocol: (§1) The product compound of the Example 1 was tested for anti-bacterial and anti-fungal activity and compared to the known commercial broad spectrum bactericide/fungicide, according to the following procedure.
(§2) Samples of the compound were prepared for testing by making a stock solution in sterile distilled water containing 10,000 parts per million. Serial dilutions of each sample were prepared in appropriate culture media which were then innoculated with the test cultures and incubated. The tests employing bacteria were performed in BBL Trypticase Soy Broth incubated for 48 hours at 35° C. The tests employing A. niger were performed in Difco Sabouraud Dextrose Broth incubated for 5 days at 26° C.
(§3) The test cultures were Staphylococcus aureus No. 6538, Pseudomonas aeruginosa No. 9027 and Aspergillus niger No. 16404.

[2] = system: Pseudomonas aeruginosa No. 9027; test: Serial dilution anti-bacterial test in BBL Trypticase Soy Broth; conditions: for MIC: Pseudomonas aeruginosa, read-out: Minimum Inhibitory Centration; as to Test Culture and Results Pseudomonas aeruginosa # 9027: key: -: Denotes no test; +: Denotes growth; 0: Denotes no growth
Protocol: as §1, §2, §3

[3] = system: Staphylococcus aureus No. 6538; test: as above; set-up: Test Culture and Results Staphyloccus aureus # 6538: key: -: Denotes no test; +: Denotes growth; 0: Denotes no growth; conditions: for MIC: Staphylococcus aureus, read-out: Minimum Inhibitory Centration
Protocol: as §1, §2, §3

[4] = 100 parts per million, 5 days at 26° C
[5] = 200 parts per million, 5 days at 26° C
[6] = 300 parts per million, 5 days at 26° C
[7] = 400 parts per million, 5 days at 26° C
[8] = 500 parts per million, 5 days at 26° C
[9] = 600 parts per million, 5 days at 26° C
[10] = 700 parts per million, 5 days at 26° C
[11] = 800 parts per million, 5 days at 26° C
[12] = 900 parts per million, 5 days at 26° C
[13] = 1000 parts per million, 5 days at 26° C
[14] = 100 parts per million, 48 hours at 35° C
[15] = 200 parts per million, 48 hours at 35° C
[16] = 300 parts per million, 48 hours at 35° C
[17] = 400 parts per million, 48 hours at 35° C
[18] = 500 parts per million, 48 hours at 35° C
[19] = 600 parts per million, 48 hours at 35° C
[20] = 700 parts per million, 48 hours at 35° C
[21] = 800 parts per million, 48 hours at 35° C
[22] = 900 parts per million, 48 hours at 35° C
[23] = 1000 parts per million, 48 hours at 35° C

ClC=CC[N+]12CN3CN(CN(C3)C1)C2.[Cl-] [Dowicil 200, 1-(3-chloroallyl)-3,5,7-triaza-1-azonia adamantane chloride, reference compound]
Test Culture and Results Aspergillis niger # 16404 [1, 4]: +
Test Culture and Results Aspergillis niger # 16404 [1, 5]: +
Test Culture and Results Aspergillis niger # 16404 [1, 6]: +
Test Culture and Results Aspergillis niger # 16404 [1, 7]: +
Test Culture and Results Aspergillis niger # 16404 [1, 8]: +
Test Culture and Results Aspergillis niger # 16404 [1, 9]: +
Test Culture and Results Aspergillis niger # 16404 [1, 10]: +
Test Culture and Results Aspergillis niger # 16404 [1, 11]: 0
Test Culture and Results Aspergillis niger # 16404 [1, 12]: 0
Test Culture and Results Aspergillis niger # 16404 [1, 13]: 0
MIC [1]: 800 µg/mL
Test Culture and Results Pseudomonas aeruginosa # 9027 [2, 14]: +
Test Culture and Results Pseudomonas aeruginosa # 9027 [2, 15]: +
Test Culture and Results Pseudomonas aeruginosa # 9027 [2, 16]: +
Test Culture and Results Pseudomonas aeruginosa # 9027 [2, 17]: +
Test Culture and Results Pseudomonas aeruginosa # 9027 [2, 18]: +
Test Culture and Results Pseudomonas aeruginosa # 9027 [2, 19]: +
Test Culture and Results Pseudomonas aeruginosa # 9027 [2, 20]: +
Test Culture and Results Pseudomonas aeruginosa # 9027 [2, 21]: +
Test Culture and Results Pseudomonas aeruginosa # 9027 [2, 22]: 0
Test Culture and Results Pseudomonas aeruginosa # 9027 [2, 23]: 0
MIC ([2]; NO.9027, 48 h): 900 µg/mL
Test Culture and Results Staphyloccus aureus # 6538 [3, 14]: +
Test Culture and Results Staphyloccus aureus # 6538 [3, 15]: 0
Test Culture and Results Staphyloccus aureus # 6538 [3, 16]: 0
Test Culture and Results Staphyloccus aureus # 6538 [3, 17]: 0
Test Culture and Results Staphyloccus aureus # 6538 [3, 18]: 0
Test Culture and Results Staphyloccus aureus # 6538 [3, 19]: 0
Test Culture and Results Staphyloccus aureus # 6538 [3, 20]: 0
Test Culture and Results Staphyloccus aureus # 6538 [3, 21]: 0
Test Culture and Results Staphyloccus aureus # 6538 [3, 22]: 0
Test Culture and Results Staphyloccus aureus # 6538 [3, 23]: 0
MIC ([3]; NO.6538, 48 h): 200 µg/mL

CCCCCCCCCCCC[N+](C)(C)CCCN1C(=O)NC(C)(C)C1=O [Example 1]
Test Culture and Results Aspergillis niger # 16404 [1, 4]: +
Test Culture and Results Aspergillis niger # 16404 [1, 5]: +
Test Culture and Results Aspergillis niger # 16404 [1, 6]: 0
Test Culture and Results Aspergillis niger # 16404 [1, 7]: 0
Test Culture and Results Aspergillis niger # 16404 [1, 8]: 0
Test Culture and Results Aspergillis niger # 16404 [1, 9]: 0
Test Culture and Results Aspergillis niger # 16404 [1, 10]: 0
Test Culture and Results Aspergillis niger # 16404 [1, 11]: 0
Test Culture and Results Aspergillis niger # 16404 [1, 12]: 0
Test Culture and Results Aspergillis niger # 16404 [1, 13]: 0
MIC ([1]; Asperg. niger # 16404, 5 days at 26° C): 300 µg/mL
Test Culture and Results Pseudomonas aeruginosa # 9027 [2, 14]: +
Test Culture and Results Pseudomonas aeruginosa # 9027 [2, 15]: +
Test Culture and Results Pseudomonas aeruginosa # 9027 [2, 16]: +
Test Culture and Results Pseudomonas aeruginosa # 9027 [2, 17]: +
Test Culture and Results Pseudomonas aeruginosa # 9027 [2, 18]: +
Test Culture and Results Pseudomonas aeruginosa # 9027 [2, 19]: 0
Test Culture and Results Pseudomonas aeruginosa # 9027 [2, 20]: 0
Test Culture and Results Pseudomonas aeruginosa # 9027 [2, 21]: 0
Test Culture and Results Pseudomonas aeruginosa # 9027 [2, 22]: 0
Test Culture and Results Pseudomonas aeruginosa # 9027 [2, 23]: 0
MIC ([2]; NO.9027, Pseudo. aerugin # 9027, 48 hours at 35° C): 600 µg/mL
Test Culture and Results Staphyloccus aureus # 6538 ([3]; 1.56 parts per million, 48 hours at 35° C): +
Test Culture and Results Staphyloccus aureus # 6538 ([3]; 3.12 parts per million, 48 hours at 35° C): +
Test Culture and Results Staphyloccus aureus # 6538 ([3]; 6.25 parts per million, 48 hours at 35° C): +
Test Culture and Results Staphyloccus aureus # 6538 ([3]; 12.5 parts per million, 48 hours at 35° C): +
Test Culture and Results Staphyloccus aureus # 6538 ([3]; 25 parts per million, 48 hours at 35° C): 0
Test Culture and Results Staphyloccus aureus # 6538 ([3]; 50 parts per million, 48 hours at 35° C): 0
Test Culture and Results Staphyloccus aureus # 6538 [3, 14]: 0
Test Culture and Results Staphyloccus aureus # 6538 [3, 15]: 0
Test Culture and Results Staphyloccus aureus # 6538 [3, 16]: 0
Test Culture and Results Staphyloccus aureus # 6538 [3, 17]: 0
Test Culture and Results Staphyloccus aureus # 6538 [3, 18]: 0
Test Culture and Results Staphyloccus aureus # 6538 [3, 19]: 0
Test Culture and Results Staphyloccus aureus # 6538 [3, 20]: 0
Test Culture and Results Staphyloccus aureus # 6538 [3, 21]: 0
Test Culture and Results Staphyloccus aureus # 6538 [3, 22]: 0
Test Culture and Results Staphyloccus aureus # 6538 [3, 23]: 0
MIC ([3]; NO.6538, Staph. aureus # 6538, 48 hours at 35° C): 25 µg/mL
